{
  "source": "patent US7807176B2",
  "about": "“Polypeptide promoting vascular endothelial cell growth” (Genomidea, Inc., priority 2004, dated 2010)",
  "key": {"[1]": {"test_system": "insulin-like growth factor-1 (IGF-1) mRNA", "test": "Growth factor mRNA expression level: IGF-1", "type": "cell-based"}, "[2]": {"test_system": "phosphatidyl inositol-3-kinase/Akt (PI3K/Akt)", "test": "Effect on PI3K/Akt activity", "conditions": "data are not shown"}, "[3]": {"test_system": "ERK (extracellular signal-related kinase)", "test": "Effect on ERK activity", "conditions": "data are not shown"}, "[4]": {"test_system": "connective tissue growth factor (CTGF) mRNA", "test": "Growth factor mRNA expression level: CTGF", "type": "cell-based"}, "c-fos promoter": {"test_system": "c-fos promoter", "test": "c-fos promoter assay (c-fos-Luci luciferase)", "type": "cell-based, bovine", "conditions": "FIG. 8", "protocol": "To further confirm the proliferation ability, an assay using a promoter of proto-oncogene c-fos, which is activated in the earliest stage of cell proliferation, was carried out. The gene c-fos-Luci having luciferase ligated under this promoter, and a candidate gene, were introduced in a weight ratio of 1:1 by lipofection into bovine vascular endothelial cells, and after 24 to 48 hours, the luciferase activity was measured."}, "tube formation": {"test_system": "tube formation", "test": "Tube formation, Kurabo Angiogenesis kit with CD31 staining and image quantification", "type": "cell-based, human", "conditions": "for tube Area % Increase / tube Length % Increase: Table 2; for Area (% increase): Example 5, Table 4; for Length (% increase): Example 5, Table 5", "protocol": "Using a Kurabo Angiogenesis kit (KZ-1000, Kurabo Industries Ltd.), tube formation was examined. A blank, vascular endothelial growth factor-A protein (VEGF-A), pVEGF plasmid (plasmid containing a gene encoding vascular endothelial growth factor), and pSPORT1 (a plasmid not containing a gene encoding vascular endothelial growth factor) were used as controls. […]\nCulture was carried out at 37° C. in a 5% CO2 incubator. The medium was exchanged on the 4th, 7th and 9th days of culture with a fresh medium containing the same additives.\nCD31 (PECAM-1) staining primary antibody (mouse anti-human CD31 antibody) was diluted 4,000-fold with a blocking solution (Dulbecco's phosphate buffer solution (PBS(−)) containing 1% BSA). 0.5 ml of this primary antibody solution was added to each well and incubated for 60 minutes at 37° C. After incubation was finished, each well was washed 3 times with 1 ml blocking solution.\nThen, 0.5 ml of a secondary antibody (goat anti-mouse IgG/alkali phosphatase conjugate) solution, diluted 500-fold with the blocking solution, was added to each well and incubated for 60 minutes at 37° C., and each well was washed 3 times with 1 ml distilled water. Separately, 2 tablets of BCIP/NBT were dissolved in 20 ml distilled water and filtered through a filter with a pore size of 0.2 μm, to prepare a substrate solution. 0.5 ml of the prepared BCIP/NBT substrate solution was added to each well and incubated at 37° C. until the tube turned deep violet (usually in 5 to 10 minutes). After incubation was finished, each well was washed 3 times with 1 ml distilled water, followed by removing the washing solution using suction, and the plate was left to air-dry. After drying, each well was observed under a microscope.\nEach well was observed under a 40× magnification microscope and a photograph of each well was taken. An enlarged photograph with the scale of 1 mm magnified 40-fold was taken (FIG. 5).\nEach of the resulting images was quantified with angiogenesis quantification software (KSW-5000U, Kurabo Industries Ltd.) according to the following method. The area (left in FIG. 6) and length (right in FIG. 6) of tubes formed in each visual field were measured on the scale by computer analysis with various indicators. […]"}, "HAEC": {"test_system": "HAEC", "test": "MTS assay of endothelial cell proliferation with added peptide", "type": "cell-based, human", "conditions": "for endothelial proliferation Increase [times]: MTS, Table 3", "protocol": "F2 peptide was synthesized and then contacted in a varying amount with HAEC, and the ability thereof to proliferate the cells was examined by MTS assay. The MTS assay is a modification of the MTT assay, and is a method of measuring living cells based on a reaction of reducing tetrazolium salt (MTS) by living cells in culture, into a colored product formazan. Specifically, this assay is carried out as follows: • HAEC was inoculated onto a 96-well plate at a density of 750 cells/well. • 2 μl/well of each sample was added to 100 μl/well endothelial cell medium (1% FBS, without EGF). 2 μl/well was added every day (until Day 6) (the medium was not exchanged). • 20 μl measurement solution (Cell Titer 96 AQueous One Solution Cell Proliferation Assay (Promega)) was added to each well and mixed with 100 μl of the endothelial cell medium, and the old medium was removed by suction. A mixed suspension of the measurement solution and the cells was put in a volume of 120 μl/well and then incubated for 1 to 5 hours in a CO2 incubator. • The absorbance at 490 nm was measured with a plate reader.\nThe sample group (8 wells each) is as follows: • NC: Only EBM medium (endothelial cell medium) containing 1% FBS. The other samples were cultured by adding various peptides to this medium containing serum. • VEGF-A: Recombinant VEGF-A (KURABO) was added at a final concentration of 10 ng/ml. • F2-1: F2 peptide was added at a final concentration of 1 ng/ml. • F2-10: F2 peptide was added at a final concentration of 10 ng/ml. • F2-100: F2 peptide was added at a final concentration of 100 ng/ml. • F2-1000: F2 peptide was added at a final concentration of 1000 ng/ml."}},
  "note": "Entries after “also recorded” stand apart in the source; their conditions may differ.",
  "data": [
    {"sequence": "MLSLIFLHRLKSMRKRLDRKLRFWHRKNYP (listed as Homo sapiens) [F2 peptide]", "values": [
      {"measurement": "IGF-1 mRNA Increased Amount [times]", "setting": "[1]; 24 hrs", "result": 46.2, "unit": "times"},
      {"measurement": "IGF-1 mRNA Increased Amount [times]", "setting": "[1]; 48 hrs", "result": 97.9, "unit": "times"},
      {"measurement": "IGF-1 mRNA Increased Amount [times]", "setting": "[1]; 72 hrs", "result": 243.8, "unit": "times"},
      {"measurement": "effect on mRNA level of IGF-1 (in words)", "setting": "[1]; over 72 hours, FIG. 16", "result": "up-regulated the mRNA level of insulin-like growth factor-1 (IGF-1) potently and specifically in a time-dependent manner"},
      {"measurement": "effect on PI3K/Akt activity", "setting": "[2]", "result": "did not have any direct effect"},
      {"measurement": "effect on ERK activity", "setting": "[3]", "result": "did not have any direct effect"},
      {"measurement": "effect on mRNA level of CTGF (in words)", "setting": "[4]", "result": "did not have any effect"},
      {"measurement": "CTGF mRNA Increased Amount [times]", "setting": "[4]; 24 hrs", "result": 0.2, "unit": "times"},
      {"measurement": "CTGF mRNA Increased Amount [times]", "setting": "[4]; 48 hrs", "result": 1.1, "unit": "times"},
      {"measurement": "CTGF mRNA Increased Amount [times]", "setting": "[4]; 72 hrs", "result": 0.5, "unit": "times"},
      {"measurement": "activity in c-fos promoter assay of gene fragments in pCDNA3.1", "setting": "c-fos promoter", "result": "same activity as that of VEGF"},
      {"measurement": "tube Area % Increase", "setting": "tube formation; 100 ng/ml", "result": 61, "unit": "%"},
      {"measurement": "tube Length % Increase", "setting": "tube formation; 100 ng/ml", "result": 53, "unit": "%"},
      {"measurement": "Area (% increase)", "setting": "tube formation; 1 μg/ml", "result": 41.8, "unit": "%"},
      {"measurement": "Length (% increase)", "setting": "tube formation; 1 μg/ml", "result": 38.5, "unit": "%"},
      {"measurement": "tube Area % Increase", "setting": "tube formation; 1 μg/ml", "result": 55, "unit": "%"},
      {"measurement": "tube Length % Increase", "setting": "tube formation; 1 μg/ml", "result": 50, "unit": "%"},
      {"measurement": "Area (% increase)", "setting": "tube formation; 10 μg/ml", "result": 131.4, "unit": "%"},
      {"measurement": "Length (% increase)", "setting": "tube formation; 10 μg/ml", "result": 115.5, "unit": "%"},
      {"measurement": "angiogenesis activity compared with LL-37 peptide (in words)", "setting": "tube formation; 10 μg/ml, FIG. 15", "result": "higher angiogenesis activity at a dose of 10 μg/ml than that of LL-37 peptide"},
      {"measurement": "tube Area % Increase", "setting": "tube formation; 10 μg/ml", "result": 132, "unit": "%"},
      {"measurement": "tube Length % Increase", "setting": "tube formation; 10 μg/ml", "result": 116, "unit": "%"},
      {"measurement": "in vitro angiogenesis activity (in words)", "setting": "tube formation; F2 0.1, 1, 10 μg/ml versus VEGF 50 ng/ml and control peptide", "result": "larger blood vessels were formed; also recorded: stronger angiogenesis enhancing activity than that of VEGF"},
      {"measurement": "endothelial proliferation Increase [times]", "setting": "HAEC; 100 ng/ml", "result": 1.23, "unit": "times"},
      {"measurement": "endothelial proliferation Increase [times]", "setting": "HAEC; 1 μg/ml", "result": 1.475, "unit": "times"},
      {"measurement": "cell proliferation ability (MTS assay, absorbance at 490 nm)", "setting": "HAEC; F2 peptide 1 to 1000 ng/ml added every day until Day 6, VEGF-A 10 ng/ml, FIG. 9", "result": "recognized in a dose-dependent manner, similar to VEGF protein; also recorded: stronger activity of enhancing proliferation of HEAC than VEGF"}
    ]}
  ]
}
